Test results taken from the NIST ThermoML archive (doi:10.1016/j.jct.2009.11.004).
± gives the expanded uncertainty stated by the source.

Legend:
[1] = 101.33 kPa, Liquid; for viscosity: Concentric cylinders viscometry; for mass density: Vibrating tube method
[2] = refractive index (Na D-line) (dimensionless); details: 101.33 kPa, Liquid, Standard Abbe refractometry

| SMILES | viscosity ([1]; 293.15 K) [mPa·s] | mass density ([1]; 293.15 K) [kg/m3] | viscosity ([1]; 298.15 K) [mPa·s] | mass density ([1]; 298.15 K) [kg/m3] | viscosity ([1]; 303.15 K) [mPa·s] | mass density ([1]; 303.15 K) [kg/m3] | viscosity ([1]; 308.15 K) [mPa·s] | mass density ([1]; 308.15 K) [kg/m3] | viscosity ([1]; 313.15 K) [mPa·s] | mass density ([1]; 313.15 K) [kg/m3] | viscosity ([1]; 318.15 K) [mPa·s] | mass density ([1]; 318.15 K) [kg/m3] | viscosity ([1]; 323.15 K) [mPa·s] | mass density ([1]; 323.15 K) [kg/m3] | viscosity ([1]; 328.15 K) [mPa·s] | mass density ([1]; 328.15 K) [kg/m3] | viscosity ([1]; 333.15 K) [mPa·s] | mass density ([1]; 333.15 K) [kg/m3] | viscosity ([1]; 338.15 K) [mPa·s] | refractive index ([2]; 298.15 K) | other results |
| --- | --- | --- | --- | --- | --- | --- | --- | --- | --- | --- | --- | --- | --- | --- | --- | --- | --- | --- | --- | --- | --- |
| CCCCCCCCCCCC[n+]1ccccc1.O=S(=O)([N-]S(=O)(=O)C(F)(F)F)C(F)(F)F [1-dodecylpyridinium bis(trifluoromethylsulfonyl)imide] | 269.72 ± 8.3 | 1253.1 ± 1.6 | 200.45 ± 5.7 | 1248.8 ± 1.6 | 151.42 ± 4 | 1244.6 ± 1.6 | 116.63 ± 2.9 | 1240.5 ± 1.6 | 91.45 ± 2.2 | 1236.4 ± 1.6 | 72.83 ± 1.7 | 1232.3 ± 1.6 | 58.88 ± 1.3 | 1228.2 ± 1.6 | 48.25 ± 1.1 | 1224.1 ± 1.6 | 40.02 ± 0.9 | 1220.1 ± 1.6 | 33.59 ± 0.76 | 1.44969 ± 0.00059 | mass density ([1]; 338.15 K): 1216 ± 1.6 kg/m3; viscosity ([1]; 343.15 K): 28.47 ± 0.64 mPa·s; mass density ([1]; 343.15 K): 1212 ± 1.6 kg/m3; viscosity ([1]; 348.15 K): 24.36 ± 0.55 mPa·s; mass density ([1]; 348.15 K): 1208 ± 1.5 kg/m3; viscosity ([1]; 353.15 K): 21.03 ± 0.48 mPa·s; mass density ([1]; 353.15 K): 1204 ± 1.5 kg/m3; refractive index ([2]; 293.15 K): 1.45131 ± 0.0006; refractive index ([2]; 303.15 K): 1.44818 ± 0.00059; refractive index ([2]; 308.15 K): 1.44668 ± 0.00059; refractive index ([2]; 313.15 K): 1.44524 ± 0.00058; refractive index ([2]; 318.15 K): 1.44379 ± 0.00058; refractive index ([2]; 323.15 K): 1.44235 ± 0.00058; refractive index ([2]; 328.15 K): 1.4409 ± 0.00058; refractive index ([2]; 333.15 K): 1.43946 ± 0.00058 |
| CCCCCCCCCC[n+]1ccccc1.O=S(=O)([N-]S(=O)(=O)C(F)(F)F)C(F)(F)F [1-decylpyridinium bis(trifluoromethylsulfonyl)imide] | 201.44 ± 5.7 | 1287.8 ± 1.7 | 151.93 ± 4 | 1283.5 ± 1.7 | 116.39 ± 2.9 | 1279.2 ± 1.7 | 90.82 ± 2.1 | 1275.1 ± 1.7 | 72.07 ± 1.6 | 1270.9 ± 1.7 | 58.06 ± 1.3 | 1266.8 ± 1.6 | 47.46 ± 1.1 | 1262.6 ± 1.6 | 39.29 ± 0.89 | 1258.5 ± 1.6 | 32.91 ± 0.74 | 1254.3 ± 1.6 | 27.86 ± 0.63 | 1.44859 ± 0.00059 | mass density ([1]; 338.15 K): 1250.2 ± 1.6 kg/m3; viscosity ([1]; 343.15 K): 23.81 ± 0.54 mPa·s; mass density ([1]; 343.15 K): 1246.1 ± 1.6 kg/m3; viscosity ([1]; 348.15 K): 20.54 ± 0.46 mPa·s; mass density ([1]; 348.15 K): 1242 ± 1.6 kg/m3; viscosity ([1]; 353.15 K): 17.85 ± 0.4 mPa·s; mass density ([1]; 353.15 K): 1237.9 ± 1.6 kg/m3; refractive index ([2]; 293.15 K): 1.45007 ± 0.00059; refractive index ([2]; 303.15 K): 1.44703 ± 0.00059; refractive index ([2]; 308.15 K): 1.44546 ± 0.00059; refractive index ([2]; 313.15 K): 1.44391 ± 0.00059; refractive index ([2]; 318.15 K): 1.44239 ± 0.00059; refractive index ([2]; 323.15 K): 1.44091 ± 0.00059; refractive index ([2]; 328.15 K): 1.43943 ± 0.00059; refractive index ([2]; 333.15 K): 1.43796 ± 0.00059 |
| CCCCCC[n+]1ccn(C)c1.O=S(=O)([N-]S(=O)(=O)C(F)(F)F)C(F)(F)F |  |  | 68.54 ± 1.6 | 1370.8 ± 1.8 |  |  |  |  |  |  |  |  |  |  |  |  |  |  |  | 1.4318 ± 0.00051 |  |
| CCCCCCCC[n+]1ccccc1.O=S(=O)([N-]S(=O)(=O)C(F)(F)F)C(F)(F)F [1-octylpyridinium bis((trifluoromethyl)sulfonyl)amide] | 149.53 ± 3.9 | 1331.3 ± 1.8 | 114.34 ± 2.8 | 1326.8 ± 1.8 | 88.74 ± 2.1 | 1322.5 ± 1.7 | 70.13 ± 1.6 | 1318.2 ± 1.7 | 56.33 ± 1.3 | 1313.9 ± 1.7 | 45.9 ± 1 | 1309.6 ± 1.7 | 37.91 ± 0.86 | 1305.3 ± 1.7 | 31.7 ± 0.72 | 1301.1 ± 1.7 | 26.8 ± 0.61 | 1296.8 ± 1.7 | 22.89 ± 0.52 | 1.44723 ± 0.00059 | mass density ([1]; 338.15 K): 1292.6 ± 1.7 kg/m3; viscosity ([1]; 343.15 K): 19.73 ± 0.45 mPa·s; mass density ([1]; 343.15 K): 1288.3 ± 1.7 kg/m3; viscosity ([1]; 348.15 K): 17.15 ± 0.39 mPa·s; mass density ([1]; 348.15 K): 1284.1 ± 1.7 kg/m3; viscosity ([1]; 353.15 K): 15.02 ± 0.34 mPa·s; mass density ([1]; 353.15 K): 1279.9 ± 1.7 kg/m3; refractive index ([2]; 293.15 K): 1.4487 ± 0.00059; refractive index ([2]; 303.15 K): 1.44568 ± 0.00059; refractive index ([2]; 308.15 K): 1.44413 ± 0.00059; refractive index ([2]; 313.15 K): 1.44262 ± 0.00059; refractive index ([2]; 318.15 K): 1.44115 ± 0.00058; refractive index ([2]; 323.15 K): 1.43972 ± 0.00058; refractive index ([2]; 328.15 K): 1.43827 ± 0.00058; refractive index ([2]; 333.15 K): 1.43681 ± 0.00058 |
| CCCC[n+]1ccccc1.O=S(=O)([N-]S(=O)(=O)C(F)(F)F)C(F)(F)F [1-butylpyridinium bis[(trifluoromethyl)sulfonyl]imide] | 76.16 ± 1.8 | 1452.5 ± 2 | 60.41 ± 1.4 | 1447.6 ± 2 | 48.55 ± 1.1 | 1442.9 ± 2 | 39.65 ± 0.9 | 1438.3 ± 2 | 32.83 ± 0.74 | 1433.6 ± 2 | 27.56 ± 0.62 | 1429 ± 2 | 23.4 ± 0.53 | 1424.3 ± 2 | 20.08 ± 0.45 | 1419.7 ± 1.9 | 17.4 ± 0.39 | 1415.1 ± 1.9 | 15.2 ± 0.34 | 1.44379 ± 0.0006 | mass density ([1]; 338.15 K): 1410.5 ± 1.9 kg/m3; viscosity ([1]; 343.15 K): 13.39 ± 0.3 mPa·s; mass density ([1]; 343.15 K): 1406 ± 1.9 kg/m3; viscosity ([1]; 348.15 K): 11.87 ± 0.27 mPa·s; mass density ([1]; 348.15 K): 1401.5 ± 1.9 kg/m3; viscosity ([1]; 353.15 K): 10.59 ± 0.24 mPa·s; mass density ([1]; 353.15 K): 1397 ± 1.9 kg/m3; refractive index ([2]; 293.15 K): 1.44537 ± 0.0006; refractive index ([2]; 303.15 K): 1.44211 ± 0.0006; refractive index ([2]; 308.15 K): 1.44057 ± 0.00059; refractive index ([2]; 313.15 K): 1.43911 ± 0.00058; refractive index ([2]; 318.15 K): 1.43769 ± 0.00058; refractive index ([2]; 323.15 K): 1.43631 ± 0.00057; refractive index ([2]; 328.15 K): 1.43496 ± 0.00057; refractive index ([2]; 333.15 K): 1.43359 ± 0.00058 |
